Test results from US20220313670A1, “Methods Of Treating Fabry Disease In Patients Having Renal Impairment” (Amicus Therapeutics, Inc., priority 2019, published 2022).
Several values for one entry are separate records, joined by “and”; a condition that tells them apart may be missing. Equal entries are not always repeated. Where two headings read alike, the source gives them in different places.

How the values were obtained:
[1] = FACETS (011) population PK from sparse blood sampling in Fabry patients; assay type: in vivo, human; details: for Comparison to FACETS PPK (migalastat concentration): Fabry patients of FACETS
From the text: One or more of the dosing regimens described herein are particularly suitable for Fabry patients who have some degree of renal impairment. […] FACETS (011, NCT00925301) was a 24-month trial, including a 6-month double-blind, placebo-controlled period, in 67 enzyme replacement therapy (ERT)-naive patients. ATTRACT (012, NCT01218659) was an active-controlled, 18-month trial in 57 ERT-experienced patients with a 12-month open-label extension (OLE). Both the FACETS and ATTRACT studies included patients having an estimated glomerular filtration rate (eGFR) of ≥30 ml/min/1.73 m^2. Accordingly, both studies included Fabry patients with normal renal function as well as patients with mild and moderate renal impairment, but neither study included patients with severe renal impairment.
Thus, two Fabry patients with renal impairment were evaluated. One patient (P1) had moderate renal impairment, while the other patient (P2) had severe renal impairment. […] The comparison with the results from the FACETS study allows for comparison of PK in the Fabry population with mostly normal, but some mild and a few moderately impaired Fabry patients. None had severe renal impairment because these patients were excluded from the study.

[2] = system: lyso-Gb3; assay: Plasma lyso-Gb3 in Fabry patients on migalastat; assay type: in vivo, human
From the text: In further embodiments, the method further comprises measuring lyso-Gb3 in one or more plasma samples from the patient. A first baseline lyso-Gb3 level may be determined during the first time period. As used herein, “baseline lyso-Gb3 level” refers to the lowest plasma lyso-Gb3 value measured during a given time period or dosing regimen. […] Thus, in further embodiments, the administration of the second time period is begun after an increase (e.g., of at least about 20, 25, 30, 33, 35, 40, 45 or 50% and/or 1, 1.25, 1.5, 1.75, 2, 2.25, 2.5 or 3 nM) above the first baseline lyso-Gb3 level is measured. […] Lyso-Gb3 levels may be measured at varying frequencies (e.g., about once every 2, 3, 4 or 5 months). It is thought that it takes about 3 months for a baseline lyso-Gb3 level to be established once a dosing regimen has been started.
Lyso-Gb3 can be measured via methods known in the art using validated assays. […] For example, one process of measuring plasma lyso-Gb3 is described in Hamler, Rick, et al. “Accurate quantitation of plasma globotriaosylsphingosine (lyso-Gb3) in normal individuals and Fabry disease patients by liquid chromatography—tandem mass spectrometry (LC—MS/MS).” Molecular Genetics and Metabolism, Volume 114.2 (2015):S51. In one or more embodiments, lyso-Gb3 is measured in samples from a patient's urine.

[3] = Highest recorded migalastat exposure in a Fabry patient after a single dose of 450 mg; assay type: in vivo, human; details: single dose of 450 mg
From the text: FIGS. 2A-D show the mean simulation plots for each regimen.

[4] = system: cardiac repolarization; details: 150 mg and 1250 mg single doses; cited from earlier work
[5] = Earlier single and multiple ascending dose plasma and urine pharmacokinetic studies in healthy volunteers and Fabry patients; details: human, in vivo
[6] = Multiple dose simulations (2-compartment model, WinNonlin) on the renal impairment subjects of Example 1; design: species or system human; details: ratio to AUCPPK
From the text: This example provides computer simulations of dosing the renal impairment subjects of Example 1. The key assumption was exposure characterized in non-Fabry subjects with renal impairment is the same as in Fabry patients with renal impairment. The software program was WinNonlin version 5.2 or higher. […] Steady state was assumed by 7th dose. […] QOD (every other day or 48 hrs), Q3D (every 3rd day or 72 hrs), Q4D (every 4th day or 96 hrs), and Q7D (every 7th day/once a week or 168 hrs). A 2-compartment model was used to estimate volume of distribution (Vd) and elimination rate constants from single dose data. These estimates were inputted into each molecular dose simulation regimen.

[7] = system: Fabry disease; assay: Phase 3 studies (FACETS, ATTRACT) of migalastat 150 mg every other day in Fabry patients; assay type: in vivo, human
From the text: One or more of the dosing regimens described herein are particularly suitable for Fabry patients who have some degree of renal impairment. […]00925301) was a 24-month trial, including a 6-month double-blind, placebo-controlled period, in 67 enzyme replacement therapy (ERT)-naive patients. ATTRACT (012, NCT01218659) was an active-controlled, 18-month trial in 57 ERT-experienced patients with a 12-month open-label extension (OLE). […] Accordingly, both studies included Fabry patients with normal renal function as well as patients with mild and moderate renal impairment, but neither study included patients with severe renal impairment. […] With a slowing in the ability to clear the drug from the body there can be an increasing exposure to the patient to the drug. Thus, in some embodiments a dose adjustment protocol is provided to inform physicians of the best dose taking into consideration the current clearance profile from the body. Dose adjustment is particularly difficult with a chaperone because it is an inhibitor, and a delicate balance must be reached such that the chaperone is present in amounts great enough to be therapeutic, but also not so great that the chaperone inhibits enzyme function (which would exacerbate the disease).

Comparison to FACETS PPK (migalastat concentration) ([1]; 3 Hrs Post, (coefficient of variation)): 1180 (31.0%)
Comparison to FACETS PPK (migalastat concentration) ([1]; 48 Hrs Post): 8.70
Comparison to FACETS PPK (migalastat concentration) ([1]; 48 h): 8.70
Comparison to FACETS PPK (migalastat concentration) ([1]; Pre-dose (0 h)): 8.70
concentration at 48 h ([1]; human, plasma, 150 mg, FACETS population PK, 150 mg QOD, read-out: PPK Cmin): 8.7 ng/mL
AUC(0-t) ([1]; human, plasma, 150 mg, 011 PPK (CLcr ≥30-≥90 mL/min), N 62, QOD regimen, read-out: AUC0-t, Geometric mean): 9030 ng·h/mL
concentration at 48 h ([1]; human, plasma, 150 mg, 011 PPK (CLcr ≥30-≥90 mL/min), N 62, QOD regimen, read-out: C48 h, Mean): 7.54 ng/mL
Cmax ([1]; human, plasma, 150 mg, 011 PPK (CLcr ≥30-≥90 mL/min), N 62, QOD regimen, read-out: Cmax, Geometric mean (CV %)): 1180 ng/mL
half-life ([1]; human, plasma, 150 mg, 011 PPK (CLcr ≥30-≥90 mL/min), N 62, QOD regimen, read-out: t1/2, Mean (converted)): 20.6 h
AUC ([1]; human, plasma, 150 mg, reference AUC of the 011 PK model, the same value printed on every subject line): 9520 ng·h/mL
highest exposure of migalastat in a Fabry patient [3]: 53035 ng·h/mL
route of excretion [5]: primarily excreted unchanged in urine
RacPPK ([6]; Geometric Mean of the 11 subjects): 4.96
RacPPK ([6]; individual subjects, Moderate (≥30-≤35) group): 3.75 and 4.36 and 2.06
Structure (SMILES): OC[C@H]1NC[C@H](O)[C@@H](O)[C@H]1O [migalastat, (2R,3S,4R,55)-2-(hydroxymethyl) piperdine-3,4,5-triol]
Lyso-Gb3 ([2]; Fabry patient P1, 18 Month Visit): 11.1 nM/L
Lyso-Gb3 ([2]; Fabry patient P1, 24 Month Visit): 13.1 nM/L
Lyso-Gb3 ([2]; Fabry patient P1, 30 Month Visit): 10.8 nM/L
Lyso-Gb3 ([2]; Fabry patient P1, 34-Month Visit): 9.3 nM/L
change of plasma lyso-Gb3 from previous visits ([2]; Fabry patient P1, decline in renal function to eGFR of 32 mL/min/1.73 m^2): has not shown clinically relevant changes
Lyso-Gb3 ([2]; Fabry patient P3, August 2014, QOD): 13.10 nmol/L
Lyso-Gb3 ([2]; Fabry patient P3, August 2017, Q4D): 9.85 nmol/L
Lyso-Gb3 ([2]; Fabry patient P3, February 2014, QOD): 11.10 nmol/L
Lyso-Gb3 ([2]; Fabry patient P3, February 2015, QOD): 10.80 nmol/L
Lyso-Gb3 ([2]; Fabry patient P3, February 2018, Q7D): 7.04 nmol/L
Lyso-Gb3 ([2]; Fabry patient P3, January 2018, Q7D): 9.04 nmol/L
Lyso-Gb3 ([2]; Fabry patient P3, June 2015, QOD): 9.30 nmol/L
Lyso-Gb3 ([2]; Fabry patient P3, March 2011, QOD): 24.15 nmol/L
Lyso-Gb3 ([2]; Fabry patient P3, March 2016, QOD): 8.46 nmol/L
Lyso-Gb3 ([2]; Fabry patient P3, May 2017, Q4D): 13.10 nmol/L
Lyso-Gb3 ([2]; Fabry patient P3, November 2017, Q4D): 8.55 nmol/L
Lyso-Gb3 ([2]; Fabry patient P3, September 2010, QOD): 27.30 nmol/L
Lyso-Gb3 ([2]; Fabry patient P3, September 2015, QOD): 7.36 nmol/L
effect on cardiac repolarization [4]: negative
RacPPK ([6]; individual subjects, Severe (<30) group): 8.81 and 5.59 and 5.02 and 6.74 and 6.23 and 6.91 and 3.62 and 5.17
disease progression as shown by surrogate markers [7]: slowed the progression of the disease
